US20260250325A1, “Antiviral Polypeptide Membrane Fusion Inhibitor, and Preparation Method and Application Thereof” (priority 2025, published 2026)
Where two headings read alike, the source gives them in different places. Where a SMILES comes first, the peptide text is derived from it. The star is where a group is joined. X1 = CC(C)CCCC(C)C1CCC2C3CC=C4CC(OC(=O)CCC(=O)*)CCC4(C)C3CCC12C

Key:
RSV A long virus strain = assay type: cell-based
Procedure, shortened: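 HEp-2 cells (30000/well) infected with 100 PFU virus premixed 1 h with compound (8 concentrations, duplicate); after 2 h adsorption, cultured 1 day at 37 °C under 0.8% CMC overlay with compound. Plaques immunostained (RSV antibody, TrueBlue) and counted; IC50 and CC50 by non-linear fitting of % inhibition versus virus and cell controls.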

[1] = Cytotoxicity test in HEp-2 cells (CCK8 cell viability); assay type: cell-based; conditions: human
Procedure, shortened: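 HEp-2 cells seeded at 30,000/well, cultured overnight at 37° C./5% CO2, then exposed to diluted compound for 1 day in 0.5% DMSO. Viability read by CCK8, normalised to untreated-cell and medium-only controls; CC50 from four-parameter variable-slope fit.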

[2] = RSV A long virus strain, HEp-2 cells, plaque reduction, 1 day, read-out: IC50
[3] = HEp-2 cells, CCK8, 1 day, read-out: CC50

Row | IC50 (RSV A long virus strain) [µM] | Compound | IC50 (RSV A long virus strain; [2]) [µM] | CC50 at 1 day [1, 3] [µM] | CC50 at 1 day [1] [µM]
1 | – | CC[C@H](C)[C@H](NC(=O)[C@H](CO)NC(=O)[C@H](C)NC(=O)[C@H](CC(=O)O)NC(=O)[C@H](Cc1ccccc1)NC(C)=O)C(=O)N[C@@H](CCC(=O)O)C(=O)N[C@@H](CCC(=O)O)C(=O)N[C@H](C(=O)N[C@@H](CC(N)=O)C(=O)N[C@@H](CCCNC(=N)N)C(=O)N[C@@H](CCCNC(=N)N)C(=O)N[C@H](C(=O)N[C@@H](CCC(=O)O)C(=O)N[C@@H](CCC(=O)O)C(=O)N[C@@H](CO)C(=O)N[C@@H](CC(C)C)C(=O)N[C@@H](CCCNC(=N)N)C(=O)N[C@@H](CCCNC(=N)N)C(=O)N[C@H](C(=O)N[C@@H](CCC(=O)O)C(=O)N[C@@H](CCC(=O)O)C(=O)N[C@@H](CO)C(=O)N[C@@H](CC(=O)O)C(=O)N[C@@H](CCCNC(=N)N)C(=O)N[C@@H](CCCNC(=N)N)C(=O)N[C@@H](CC(C)C)C(=O)N[C@@H](CCC(=O)O)C(=O)N[C@H](C(=O)N[C@@H](CC(N)=O)C(=O)N[C@@H](CCCCN)C(=O)N[C@@H](CCCCN)C(=O)N[C@@H](C)C(=O)NCC(=O)N[C@@H](CO)C(=O)NCC(=O)N[C@@H](CO)C(=O)NCC(=O)N[C@@H](CCCCNC(=O)CCC(=O)OC1CCC2(C)C(=CCC3C2CCC2(C)C(C(C)CCCC(C)C)CCC32)C1)C(N)=O)C(C)C)[C@@H](C)CC)[C@@H](C)CC)C(C)C (stereo partly drawn) [Compound 12] (Ac-FDASIEEVNRRIEESLRRIEESDRRLEVNKKAGSGSGK(X1)-NH2) | 0.0284 | > 8 | –
2 | > 8 | CC[C@H](C)[C@H](NC(=O)[C@H](Cc1ccccc1)NC(=O)[C@H](C)NC(=O)[C@H](CC(=O)O)NC(=O)[C@H](Cc1ccccc1)NC(C)=O)C(=O)N[C@@H](CCC(N)=O)C(=O)N[C@@H](CCC(=O)O)C(=O)N[C@H](C(=O)N[C@@H](CC(N)=O)C(=O)N[C@H](C(=O)N[C@@H](CC(N)=O)C(=O)N[C@@H](CCC(=O)O)C(=O)N[C@@H](CC(=O)O)C(=O)N[C@@H](CCC(N)=O)C(=O)N[C@@H](CO)C(=O)N[C@@H](CC(C)C)C(=O)N[C@@H](CCC(=O)O)C(=O)N[C@@H](CCC(N)=O)C(=O)N[C@@H](CO)C(=O)N[C@@H](CC(=O)O)C(=O)N[C@@H](CCC(=O)O)C(=O)N[C@@H](CC(C)C)C(=O)N[C@@H](CC(C)C)C(=O)N[C@@H](CC(C)C)C(=O)N[C@@H](CCC(=O)O)C(=O)N[C@@H](CC(C)C)C(=O)N[C@@H](Cc1c[nH]cn1)C(=O)N[C@@H](CC(C)C)C(=O)N[C@@H](CC(C)C)C(=O)N[C@@H](Cc1c[nH]cn1)C(=O)N[C@@H](CO)C(=O)N[C@@H](CC(C)C)C(=O)N[C@@H](CC(C)C)C(=O)N[C@@H](Cc1c[nH]cn1)C(N)=O)C(C)C)[C@@H](C)CC [Compound 7] (Ac-FDAFIQEINVNEDQSLEQSDELLLELHLLHSLLH-NH2) | – | – | > 8
3 | > 8 | CC[C@H](C)[C@H](NC(=O)[C@H](CCCCN)NC(=O)[C@H](CC(C)C)NC(=O)[C@H](CC(C)C)NC(=O)[C@H](CO)NC(=O)[C@H](C)NC(=O)[C@H](CC(=O)O)NC(=O)[C@H](Cc1ccccc1)NC(C)=O)C(=O)N[C@@H](CCC(=O)O)C(=O)N[C@@H](CCC(=O)O)C(=O)N[C@@H](CCC(=O)O)C(=O)N[C@@H](CCCCN)C(=O)N[C@@H](CCCCN)C(=O)N[C@@H](CCCCN)C(=O)N[C@H](C(=O)N[C@@H](CCC(=O)O)C(=O)N[C@@H](CCC(=O)O)C(=O)N[C@@H](CC(C)C)C(=O)N[C@@H](CC(C)C)C(=O)N[C@@H](CCCCN)C(=O)N[C@@H](CC(C)C)C(=O)N[C@@H](Cc1c[nH]cn1)C(=O)N[C@@H](CC(N)=O)C(=O)N[C@@H](CCC(=O)O)C(=O)N[C@@H](CO)C(=O)N[C@@H](CC(=O)O)C(=O)N[C@@H](CCCCN)C(=O)N[C@@H](CCCCN)C(=O)N[C@@H](CC(C)C)C(=O)N[C@@H](CCC(=O)O)C(=O)N[C@@H](CCC(=O)O)C(=O)N[C@H](C(N)=O)C(C)C)[C@@H](C)CC [Compound 4] (Ac-FDASLLKIEEEKKKIEELLKLHNESDKKLEEV-NH2) | – | – | > 8
4 | – | Ac-FDASISQVNEKINQSLAFIRKSDELLHNVNAGKSTTEAAAKK(X1)-NH2 [Positive polypeptide 7, reference compound] | > 0.3 | > 10 | –
5 | – | CC[C@H](C)[C@H](NC(=O)[C@H](CCCCN)NC(=O)[C@H](CCCCN)NC(=O)[C@H](CC(N)=O)NC(=O)[C@@H](NC(=O)[C@H](CCC(N)=O)NC(=O)[C@H](CCC(=O)O)NC(=O)[C@H](CC(C)C)NC(=O)[C@H](CO)NC(C)=O)C(C)C)C(=O)N[C@@H](CC(N)=O)C(=O)N[C@@H](CCC(N)=O)C(=O)N[C@@H](CO)C(=O)N[C@@H](CC(C)C)C(=O)N[C@@H](CCCCN)C(=O)N[C@H](C(=O)N[C@@H](CC(N)=O)C(=O)N[C@@H](CCCCN)C(=O)N[C@@H](CCCCN)C(=O)N[C@@H](CO)C(=O)N[C@@H](CC(=O)O)C(=O)N[C@@H](CCCCN)C(=O)N[C@@H](CC(C)C)C(=O)N[C@@H](CC(C)C)C(=O)N[C@@H](CCC(=O)O)C(=O)N[C@@H](CC(N)=O)C(=O)N[C@@H](CCC(=O)O)C(=O)N[C@@H](C)C(=O)N[C@@H](C)C(=O)N[C@@H](C)C(=O)N[C@@H](CCCCN)C(=O)N[C@@H](CCCCNC(=O)CCC(=O)OC1CCC2(C)C(=CCC3C2CCC2(C)C(C(C)CCCC(C)C)CCC32)C1)C(N)=O)C(C)C (stereo partly drawn) [Compound 33] (Ac-SLEQVNKKINQSLKVNKKSDKLLENEAAAKK(X1)-NH2) | 5.04 | > 8 | –
6 | – | CC[C@H](C)[C@H](NC(=O)[C@H](CCC(=O)O)NC(=O)[C@H](CCC(=O)O)NC(=O)[C@H](CC(C)C)NC(=O)[C@H](CO)NC(=O)[C@H](CCC(N)=O)NC(=O)[C@H](CC(N)=O)NC(=O)[C@@H](NC(=O)[C@H](CCCCN)NC(=O)[C@H](CC(C)C)NC(=O)[C@H](CO)NC(=O)[C@H](CCC(N)=O)NC(=O)[C@H](CCC(=O)O)NC(=O)[C@@H](NC(=O)[C@H](CCCCN)NC(=O)[C@H](CCCCN)NC(=O)[C@H](CC(N)=O)NC(=O)[C@@H](NC(=O)[C@H](CCC(=O)O)NC(=O)[C@H](CCC(=O)O)NC(=O)[C@H](CC(=O)O)NC(=O)[C@H](Cc1ccccc1)NC(C)=O)C(C)C)[C@@H](C)CC)[C@@H](C)CC)C(=O)N[C@@H](CCCNC(=N)N)C(=O)N[C@@H](CCCCN)C(=O)N[C@@H](CO)C(=O)N[C@@H](CCC(=O)O)C(=O)N[C@@H](C)C(=O)N[C@@H](C)C(=O)N[C@@H](C)C(=O)N[C@@H](CCCCN)C(=O)N[C@@H](CCCCNC(=O)CCC(=O)OC1CCC2(C)C(=CCC3C2CCC2(C)C(C(C)CCCC(C)C)CCC32)C1)C(N)=O (stereo partly drawn) [Compound 34] (Ac-FDEEVNKKIEQSLKINQSLEEIRKSEAAAKK(X1)-NH2) | > 2 | 1.5 | –
7 | – | Ac-WDEFDKKIEEVNKKIEESLKKIEESDKKLEEVNKKLEAAAKK(X1)-NH2 [Compound 9] | 0.0957 | > 8 | –
8 | – | CC[C@H](C)[C@H](NC(C)=O)C(=O)N[C@@H](CCC(=O)O)C(=O)N[C@@H](CCC(N)=O)C(=O)N[C@H](C(=O)N[C@@H](CC(N)=O)C(=O)N[C@@H](CCCCN)C(=O)N[C@@H](CCCCN)C(=O)N[C@H](C(=O)N[C@@H](CCC(=O)O)C(=O)N[C@@H](CCC(N)=O)C(=O)N[C@@H](CO)C(=O)N[C@@H](CC(C)C)C(=O)N[C@@H](CCCCN)C(=O)N[C@@H](Cc1ccccc1)C(=O)N[C@H](C(=O)N[C@@H](CCC(=O)O)C(=O)N[C@@H](CCCCN)C(=O)N[C@@H](CO)C(=O)N[C@@H](CC(=O)O)C(=O)N[C@@H](CCCCN)C(=O)N[C@@H](CC(C)C)C(=O)N[C@@H](CC(C)C)C(=O)N[C@@H](CCC(=O)O)C(=O)N[C@@H](CC(N)=O)C(=O)N[C@H](C(=O)N[C@@H](CC(N)=O)C(=O)N[C@@H](CCCCN)C(=O)NCC(=O)N[C@@H](CCCCN)C(=O)N[C@@H](CS)C(=O)N[C@@H](CCC(=O)O)C(=O)N[C@@H](C)C(=O)N[C@@H](C)C(=O)N[C@@H](C)C(=O)N[C@@H](CCCCN)C(=O)N[C@@H](CCCCNC(=O)CCC(=O)OC1CCC2(C)C(=CCC3C2CCC2(C)C(C(C)CCCC(C)C)CCC32)C1)C(N)=O)C(C)C)[C@@H](C)CC)[C@@H](C)CC)C(C)C (stereo partly drawn) [Positive polypeptide 4, reference compound] (Ac-IEQVNKKIEQSLKFIEKSDKLLENVNKGKCEAAAKK(X1)-NH2) | 0.19 | 4.62 | –
9 | – | CC[C@H](C)[C@H](NC(C)=O)C(=O)N[C@@H](CC(C)C)C(=O)N[C@@H](CCC(=O)O)C(=O)N[C@@H](CC(C)C)C(=O)N[C@H](C(=O)N[C@@H](CC(N)=O)C(=O)N[C@@H](CCCCN)C(=O)N[C@@H](CCCCN)C(=O)N[C@H](C(=O)N[C@@H](CCC(=O)O)C(=O)N[C@@H](CCC(N)=O)C(=O)N[C@@H](CO)C(=O)N[C@@H](CC(C)C)C(=O)N[C@@H](CCCCN)C(=O)N[C@@H](Cc1ccccc1)C(=O)N[C@H](C(=O)N[C@@H](CCC(=O)O)C(=O)N[C@@H](CCCCN)C(=O)N[C@@H](CO)C(=O)N[C@@H](CC(=O)O)C(=O)N[C@@H](CCCCN)C(=O)N[C@@H](CC(C)C)C(=O)N[C@@H](CC(C)C)C(=O)N[C@@H](CCC(=O)O)C(=O)N[C@@H](CC(N)=O)C(=O)N[C@@H](CCC(=O)O)C(=O)N[C@@H](C)C(=O)N[C@@H](C)C(=O)N[C@@H](C)C(=O)N[C@@H](CCCCN)C(=O)N[C@@H](CCCCNC(=O)CCC(=O)OC1CCC2(C)C(=CCC3C2CCC2(C)C(C(C)CCCC(C)C)CCC32)C1)C(N)=O)[C@@H](C)CC)[C@@H](C)CC)C(C)C (stereo partly drawn) [Compound 32] (Ac-ILELVNKKIEQSLKFIEKSDKLLENEAAAKK(X1)-NH2) | 0.296 | > 8 | –
